pIC50: −log10 of the molar value. Numbered stars: 1 amine (or outer) side, 2 acyl side, 3 side chain; on linkers, the order of the positions; unused ones are H or OH. Bridge positions count the residues as written; N and C are the ends. Peptide text beside a SMILES is read from it. * marks the point of attachment. C20 diacid = O=C(O)CCCCCCCCCCCCCCCCCCC(=O)*; γGlu = O=C(O)[C@H](CCC(=O)[*:2])N[*:1]

Data on 2 molecules can be found in patent US9023789B2, “Amylin analogs and pharmaceutical compositions thereof” (Novo Nordisk A/S, priority 2012, dated 2015).

Series [1] in a line: ASSAY (III) ThT fibrillation assay for physical stability. Format: physicochemical. An outline of the steps: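 Physical stability scored by ThT fluorescence (444 nm excitation, 485 nm emission) tracked every 20 min during 37 °C incubation with 960 rpm shaking, ThT at 1 μM final. Values are replicate means with SD at chosen times; HPLC against pramlintide standard gives initial and post-assay soluble concentrations.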

The target in series [2] is T1, rat amylin receptor (rat calcitonin receptor + rat RAMP 3) (Rattus norvegicus, UniProt P32214+Q9JJ73).
T1 construct: expressed in transfected cells; host or cells: BHK tk'ts 13 (transient, FuGENE 6), membranes
T1 sequence (P32214 25-479 isoform P32214-2 limits assumed): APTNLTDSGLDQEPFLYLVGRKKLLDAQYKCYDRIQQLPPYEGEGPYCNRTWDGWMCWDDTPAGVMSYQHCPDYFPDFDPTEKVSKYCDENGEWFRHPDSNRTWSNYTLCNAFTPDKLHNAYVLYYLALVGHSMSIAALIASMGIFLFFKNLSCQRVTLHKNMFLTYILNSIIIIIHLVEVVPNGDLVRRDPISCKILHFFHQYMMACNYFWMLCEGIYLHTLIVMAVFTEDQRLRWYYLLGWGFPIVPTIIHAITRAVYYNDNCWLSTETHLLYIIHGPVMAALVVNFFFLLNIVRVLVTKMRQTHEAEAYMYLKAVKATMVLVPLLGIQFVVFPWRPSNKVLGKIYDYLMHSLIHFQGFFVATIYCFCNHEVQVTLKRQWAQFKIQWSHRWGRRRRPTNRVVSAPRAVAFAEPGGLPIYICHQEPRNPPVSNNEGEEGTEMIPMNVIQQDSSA
T1 sequence (Q9JJ73 23-147 partner): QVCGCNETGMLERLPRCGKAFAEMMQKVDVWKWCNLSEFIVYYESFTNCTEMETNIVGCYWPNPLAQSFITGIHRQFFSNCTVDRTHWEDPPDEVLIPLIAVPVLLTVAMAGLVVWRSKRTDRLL
Kind of series: ASSAY (VI) binding to the rat amylin receptor. To be noted: for pIC50: binding to rat amylin receptor, read-out: rAmylin-R bind IC50. An outline of the steps:
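Membranes for this rat amylin receptor binding assay came from BHK tk′ts 13 cells. The cells were transiently transfected with rat calcitonin receptor using the FuGENE® 6 reagent from Roche, as the manufacturer recommends. The cells were collected approximately 48 hours after transfection, and membranes were then prepared.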

The mark [3] stands for this setting: Table 7, rat binding selectivity, rCTR IC50 / rAmylin-R IC50.
The mark [4] stands for this setting: Table 7a (preferred compounds), rat binding selectivity, rCTR IC50 / rAmylin-R IC50.
The mark [5] stands for this setting: ratio of rCTR bind IC50 to rAmylin-R bind IC50.

For orientation: pIC50 means the negative decadic logarithm of the IC50, by convention in mol/L. With `CC[C@H](C)[C@H](NC(=O)[C@H](C)NC(=O)CNC(=O)[C@H](Cc1ccccc1)NC(=O)[C@H](CC(N)=O)NC(=O)[C@@H]1CCCN1C(=O)[C@H](CO)NC(=O)[C@H](CO)NC(=O)[C@H](Cc1c[nH]cn1)NC(=O)[C@H](CCCNC(=N)N)NC(=O)[C@H](CC(C)C)NC(=O)[C@H](Cc1ccccc1)NC(=O)[C@H](Cc1c[nH]cn1)NC(=O)[C@H](C)NC(=O)[C@H](CC(C)C)NC(=O)[C@H](CCCNC(=N)N)NC(=O)[C@H](CCC(N)=O)NC(=O)[C@@H](NC(=O)[C@H](C)NC(=O)[C@@H]1CSSC[C@H](NC(=O)[C@H](CCCNC(=N)N)NC(=O)CNC(=O)CC[C@H](NC(=O)CCCCCCCCCCCCCCCCCCC(=O)O)C(=O)O)C(=O)N[C@@H](CC(N)=O)C(=O)N[C@@H]([C@@H](C)O)C(=O)N[C@@H](C)C(=O)N[C@@H]([C@@H](C)O)C(=O)N1)[C@@H](C)O)C(=O)N1CCC[C@H]1C(=O)N[C@@H](CO)C(=O)N[C@@H](CO)C(=O)N[C@H](C(=O)N[C@@H](CC(N)=O)C(=O)N[C@H](C(=O)NCC(=O)N[C@@H](Cc1c[nH]cn1)C(=O)N[C@@H](CC(N)=O)C(=O)N[C@H](C(=O)N[C@@H](Cc1ccc(O)cc1)C(N)=O)[C@@H](C)O)C(C)C)[C@@H](C)O` [Example 100] ({C20 diacid-γGlu}-GRCNTATCATQRLAHFLRHSSPNFGAIPSSTNVGHNTY-NH2; disulfide 3-8 (inferred)), the “ThT pH 4.0 lag time (h)” value in series [1] came to 33 h. Further, in series [2] (Table 7), the pIC50 was 7.95. Further, the “Ratio rCT/rAmylin binding” value in series [2] (setting [3]), in series [2] (setting [4]) and in series [2] (setting [5]) was 27.7 in each case.
As for `CC[C@H](C)[C@H](NC(=O)[C@H](C)NC(=O)CNC(=O)[C@H](Cc1ccccc1)NC(=O)[C@H](CC(N)=O)NC(=O)[C@@H]1CCCN1C(=O)[C@H](CO)NC(=O)[C@H](CO)NC(=O)[C@H](Cc1c[nH]cn1)NC(=O)[C@H](CCCNC(=N)N)NC(=O)[C@H](CC(C)C)NC(=O)[C@H](Cc1ccccc1)NC(=O)[C@H](CC(N)=O)NC(=O)[C@H](C)NC(=O)[C@H](CC(C)C)NC(=O)[C@H](CCCNC(=N)N)NC(=O)[C@H](CCC(N)=O)NC(=O)[C@@H](NC(=O)[C@H](C)NC(=O)[C@@H]1CSSC[C@H](NC(=O)[C@@H](N)CCCCNC(=O)COCCOCCNC(=O)CC[C@H](NC(=O)CCCCCCCCCCCCCCCCCCC(=O)O)C(=O)O)C(=O)N[C@@H](CC(N)=O)C(=O)N[C@@H]([C@@H](C)O)C(=O)N[C@@H](C)C(=O)N[C@@H]([C@@H](C)O)C(=O)N1)[C@@H](C)O)C(=O)N1CCC[C@H]1C(=O)N[C@@H](CO)C(=O)N[C@@H](CO)C(=O)N[C@H](C(=O)N[C@@H](CC(N)=O)C(=O)N[C@H](C(=O)NCC(=O)N[C@@H](CO)C(=O)N[C@@H](CC(N)=O)C(=O)N[C@H](C(=O)N[C@@H](Cc1ccc(O)cc1)C(N)=O)[C@@H](C)O)C(C)C)[C@@H](C)O` [Example 41], the “ThT pH 4.0 lag time (h)” value in series [1] was determined as 7 h. For the same molecule, the pIC50 in series [2] (Table 7) was 8.86. In addition, the “Ratio rCT/rAmylin binding” value in series [2] (setting [3]), in series [2] (setting [4]) and in series [2] (setting [5]) was 54.0 throughout.
